Results published in ChEMBL document CHEMBL3507680, “University of Dundee, Gates Library screen for HepG2 cell viability”.

Assay: Human HepG2 cell viability assay in 384 well format
Assay type: toxicity, cell-based
Parameters: dose 125 nL, time 70.5 hour; cytotoxicity at 70.5 h: concentration not given beside the values
Details: HepG2 cells, read-out: Inhibition

Compound | cytotoxicity at 70.5 h
CCN(CCNC(=O)c1cccnc1OCCOC)C1CC1 | 0.553%
CCC(C)N(C)CCNC(=O)c1ccccc1OCCOC (stereo not drawn) | -6.03%
Cc1nc(C)n(CC2CCCN(CCc3ccccc3)C2)n1 (stereo not drawn) | 4.16%
Cc1nc(C)n(CC2CCCN(CCOc3ccccc3C#N)C2)n1 (stereo not drawn) | 18.8%
CC(=O)NCCNC(=O)CNC1CCCN(c2ccc(C)nn2)C1 (stereo not drawn) | 17.7%
Cc1nc(C)n(CC2CN(CCCOc3ccccc3)CCO2)n1 (stereo not drawn) | -2.14%
Cc1nc(C)n(CC2CCCN(CCOc3ccc(F)cc3)C2)n1 (stereo not drawn) | -3.5%
CCNC(c1cccnc1)c1ccc(F)c(C)c1 (stereo not drawn) | 1.17%
Cc1nc(C)n(CC2CCCN(CCOc3cccc(F)c3)C2)n1 (stereo not drawn) | 0.903%
Clc1cccc(OCCCN2CCOC(Cn3cncn3)C2)c1 (stereo not drawn) | 1.4%
Cc1nn(C)c(N(C)C)c1CNCc1cccnc1N(C)C | 23.9%
Cc1nn(C)c(N(C)C)c1CNCc1cccnc1OC(C)C | 21.9%
Cc1ccc(N2CCCC(NCc3ccccn3)C2)nn1 (stereo not drawn) | 25.6%
CCOc1ncccc1CNCc1c(C)nn(C)c1N(C)C | 24.1%
Cc1ccc(N2CCCC(NCc3ccc(C)s3)C2)nn1 (stereo not drawn) | 3.59%
Cc1nc2ccccc2nc1CN1CCOC(Cn2cccn2)C1 (stereo not drawn) | -9.86%
CCc1nc(CN2CCCC(Cn3nc(C)nc3C)C2)no1 (stereo not drawn) | -9.12%
O=C(NCc1ccccc1F)NCC(O)c1cccc(F)c1 (stereo not drawn) | -10.3%
CC(C)C(=O)NC1CCCN(C(=O)c2ccccc2O)C1 (stereo not drawn) | -7.34%
CC(C)C(=O)NC1CCCN(C(=O)c2cc(Cl)ccc2O)C1 (stereo not drawn) | 15.5%
COc1ccc(C(=O)N2CCCC(NC(=O)C(C)C)C2)c(O)c1 (stereo not drawn) | 2.73%
O=C(NCCc1ccccc1F)NCC(O)c1cccc(F)c1 (stereo not drawn) | -7.16%
CCN(Cc1ccccc1Cl)Cn1nc(C)c2c(C)onc2c1=O | -6.62%
CCN(Cc1cccc(C)c1)Cn1nc(C)c2c(C)onc2c1=O | -10.8%

Compound | cytotoxicity at 70.5 h
O=C(NCc1cccc(F)c1)NCC(O)c1cccc(F)c1 (stereo not drawn) | 20.3%
c1ccc(-c2nc(CN3CCOC(Cn4cccn4)C3)co2)cc1 (stereo not drawn) | 4.42%
Cc1ccc(-c2nc(CN3CCOC(Cn4cccn4)C3)co2)cc1 (stereo not drawn) | -5.71%
c1csc(-c2nc(CN3CCOC(Cn4cccn4)C3)cs2)c1 (stereo not drawn) | -8.48%
Cc1cc(C)n(C2CCCN(C(=O)c3cn4cccnc4n3)C2)n1 (stereo not drawn) | -6.47%
Cc1cccc(N(C)S(=O)(=O)c2cc(C(=O)O)cs2)c1 | 14.1%
CN1CCCc2cc(CNC(=O)c3cccnc3O)ccc21 | -1.9%
CCOc1cccc2c1OCC(C(=O)NS(=O)(=O)c1ccc(Br)s1)=C2 | 14.6%
O=C(c1cnc(-c2ccco2)s1)N1CCCCC1Cn1cccn1 (stereo not drawn) | -9.96%
O=C(c1ccc(Cn2cccc2)cc1)N1CCN(CCO)CC1 | -4.52%
Cc1nc(C)c(CN2CCOC(CNc3cccnn3)C2)s1 (stereo not drawn) | -5.6%
Cc1ccc(NC2CCN(C(=O)CCCn3ccnc3C)CC2)nn1 | -7.72%
CCC(O)CN1CCN(C(=O)c2ccc(Cn3cccc3)cc2)CC1 (stereo not drawn) | -11.6%
CCc1cnc(CN(C)C2CCN(CCn3cc(C#N)cn3)C2)o1 (stereo not drawn) | 16.4%
COCc1nc(CN2CCOC(CNc3cccnn3)C2)cs1 (stereo not drawn) | -11.6%
CCc1nc(CN(C)C2CCN(CCn3cccn3)C2)no1 (stereo not drawn) | -15.3%
CCOc1ncccc1C(=O)N1CCCC1Cn1cc(C)cn1 (stereo not drawn) | -5.13%
CN(C)Cc1cccc(C(=O)N2CCCC(n3cncn3)C2)c1 (stereo not drawn) | -12.1%
CC(=O)N1CCCN(C(=O)c2cnn(-c3ccccc3Cl)c2)CC1 | -17.1%
Cc1cc(C)n(C2CCCN(C(=O)c3cccc4c3OCO4)C2)n1 (stereo not drawn) | -10.8%
O=C(Cc1ccc2c(c1)CCO2)N1CCCC1c1noc(C2CC2)n1 (stereo not drawn) | 9.85%
CN(C)c1ccc(CNC(=O)NCCc2cn3ccccc3n2)cn1 | -3.45%
CCn1cnnc1CNC(=O)Cc1ccc2c(c1)OCCO2 | -14.5%
CN(C)C(=O)CN1CCN(C(=O)c2cnn(-c3ccccc3Cl)c2)CC1 | -13.6%

Compound | cytotoxicity at 70.5 h
O=C(c1cnc(-c2cnccn2)s1)N1CCCC(n2cccn2)C1 (stereo not drawn) | -6.04%
CN1CCN(C(=O)c2cnn(-c3ccccc3Cl)c2)CC1 | -8.29%
COC(=O)c1cccc(C(=O)N2CCCC(n3cncn3)C2)c1 (stereo not drawn) | -8.97%
CCc1nc(CN2CCOC(CNc3cccnn3)C2)cs1 (stereo not drawn) | 10.3%
Cc1nc(CCNC(=O)NCc2cccc(N(C)C)n2)cs1 | -12.8%
CCc1nccn1C1CCCN(C(=O)c2cncnc2C)C1 (stereo not drawn) | 16%
CCCn1nc2c(cc1=O)CN(CCN1CCCC1=O)CC2 | -10.7%
Cc1cc(C)n(CC2CCCN2CC(=O)N(C)CCC#N)n1 (stereo not drawn) | -8.11%
Cc1cc(C)n(CC2CCCN2CC(=O)N(C)Cc2ccco2)n1 (stereo not drawn) | -8.36%
FC(F)(F)c1cccc(CNc2nccc(C(F)(F)F)n2)c1 | -3.61%
O=C(NCCCn1nc2ccccn2c1=O)Nc1ccc(F)cc1F | -8.62%
Cc1cccc(C)c1OCCC(=O)N1CCC(c2nncn2C)CC1 | -21.4%
Cc1ccc(C(=O)CCC(=O)N2CCC(c3nncn3C)CC2)cc1 | -4.47%
Cn1ccnc1CN1CCN(CC(O)c2ccc(F)c(F)c2)CC1 (stereo not drawn) | 13.5%
CC(C)c1cc(NC(=O)CN2CCc3cncnc3C2)on1 | -11.7%
CC(=O)Nc1nc(C(=O)N2CCCC2c2noc(C)n2)cs1 (stereo not drawn) | 6.71%
CCn1ccnc1CN(C)CC1CCCN1c1cccnn1 (stereo not drawn) | 10%
CC(=O)N(Cc1ncc(C)o1)C1CCN(CCCc2cnn(C)c2)C1 (stereo not drawn) | 13.3%
Cc1ccc(CN(C)CC(=O)NC2(C)CCS(=O)(=O)C2)cc1 (stereo not drawn) | -3.98%
COc1ccc(CC(=O)NC2(C)CCS(=O)(=O)C2)cc1F (stereo not drawn) | 0.396%
CCn1ccnc1CNCC1CCCN1c1cc(NC)ncn1 (stereo not drawn) | -4.32%
Cc1cc(C2CCCN(C(=O)c3c(C)nn4cccnc34)C2)n[nH]1 (stereo not drawn) | -3.82%
Cc1ccoc1-c1nnc(CN2CCn3c(nnc3C3CC3)C2)o1 | 31.2%
Cc1noc(C)c1CN(C)CCC(=O)N1CCc2sccc2C1 | -4.03%

Compound | cytotoxicity at 70.5 h
Cc1occc1CNC(=O)N(CCCO)C1CCc2ccccc21 (stereo not drawn) | -1.74%
CCc1ncc2c(n1)CN(CC(=O)Nc1ccc(Cl)cn1)CC2 | 32.4%
COCCN1CCN(Cc2cccc(C(=O)N(C)C)c2)CC1C (stereo not drawn) | 14.5%
CCCNC(=O)NCc1cccnc1OC | -5.64%
CN(Cc1ccc2c(c1)OCCO2)C(=O)Cn1cccnc1=O | 3.46%
CCN1CCN(c2ccc(CNC(=O)c3c(C)noc3C)cn2)CC1 | 21.7%
CN(Cc1ccc2c(c1)OCCO2)C(=O)Cn1ccccc1=O | -5.02%
CCNC(=O)c1ccc(CNCc2c(C)nn(C)c2N(C)C)cc1 | 24.8%
CC(C)CN1CCN(C(=O)NCc2cccnc2-n2cccn2)CC1 | 3.85%
CC(=O)NC1CCCN(C(=O)NCc2cccnc2-n2cccn2)C1 (stereo not drawn) | 3.84%
Cc1nn(C)c(Cl)c1CNCc1ccc(OCC(N)=O)cc1 | 1.75%
O=C(NCCc1coc(-c2ccc(F)cc2)n1)NC1CCC(O)CC1 (stereo not drawn) | 27.6%
CN(C(=O)Cc1c[nH]c2ccccc12)C1CCN(c2ccccn2)CC1 | 9.62%
Cn1cc(C(=O)N2CCCC(n3cccn3)C2)c2ccccc21 (stereo not drawn) | 0.858%
Cc1nn(-c2ccccc2)cc1C(=O)N1CCCC(n2cccn2)C1 (stereo not drawn) | -1.21%
Cc1nn(-c2ccccc2)cc1C(=O)N1CCCN2CCCC2C1 (stereo not drawn) | 3.01%
Cc1noc(C)c1CN1CCN(Cc2nccn2C)CC1 | -4.67%
Cc1ccc(-c2nc(CCNC(=O)NC3CCN(C)CC3)co2)cc1 | -4.33%
COc1ccccc1CCN(C)C(=O)NC(C)c1nncn1C (stereo not drawn) | -4.33%
Cc1cc(C)n(CC2CCCCN2C(=O)c2cnn(C)c2)n1 (stereo not drawn) | 8.99%
Cc1cc(C)n(CC2CCCCN2C(=O)c2ccc3c(c2)OCO3)n1 (stereo not drawn) | -2.07%
Cc1ccc2oc(C(=O)N3CCc4nnc(N(C)C)cc4C3)cc2n1 | -3.29%
Cc1cnc(CN2CCCC(c3cc(C(F)(F)F)[nH]n3)C2)cn1 (stereo not drawn) | -1.33%
COCCN1CCN(Cc2cccc(OCC(N)=O)c2)CC1C (stereo not drawn) | 10.7%

Compound | cytotoxicity at 70.5 h
Cc1cnn(CC2CN(CC(=O)NCCc3cccs3)CCO2)c1 (stereo not drawn) | -2.04%
Cc1cccc(-c2noc(CN3CCCC3Cn3cccn3)n2)c1 (stereo not drawn) | 8.86%
Cc1cnn(CC2CN(CC(=O)N(C)c3nccs3)CCO2)c1 (stereo not drawn) | -2.03%
Cc1cc(C)n(CCC(=O)N2CCCC(n3cncn3)C2)n1 (stereo not drawn) | 25.8%
OC(COCc1ccccc1F)CN1CCc2c(ncn2C2CC2)C1 (stereo not drawn) | -2.37%
CCc1nc(CC(=O)N2CCCC2Cn2cccn2)cs1 (stereo not drawn) | 2.11%
Cc1nc(C)n(CC2CCCN2Cc2cn3c(C)cccc3n2)n1 (stereo not drawn) | -4.2%
OC(CNCCn1cccn1)c1ccc(F)c(F)c1 (stereo not drawn) | 0.389%
CC(Cn1cccn1)NC(=O)N1CCN(Cc2cccs2)CC1 (stereo not drawn) | 17%
CC(Cn1cccn1)NC(=O)NCc1ccccn1 (stereo not drawn) | -3.27%
Cc1cc(NC(=O)NCC2CCOC2)no1 (stereo not drawn) | -11.6%
O=C(NCCCN1CCc2ccccc2C1)c1cccnc1O | -11.9%
Cc1cc(C(=O)NCc2ccc(N3CCCC(C(N)=O)C3)cc2)[nH]n1 (stereo not drawn) | -2.55%
Cc1occc1C(=O)NCc1ccc(N2CCCC(C(N)=O)C2)cc1 (stereo not drawn) | -6.48%
CC(Cn1cccn1)NC(=O)NCc1cccs1 (stereo not drawn) | -16.6%
CS(=O)(=O)c1ccccc1C(=O)NCCCN1CCc2ccccc2C1 | 18.5%
Cc1cn2c(n1)CCC(NC(=O)c1cc(Br)cn1C)C2 (stereo not drawn) | 1.7%
Cc1cc(OCC(=O)N2CCCC(c3ccn[nH]3)C2)no1 (stereo not drawn) | -5.93%
Cc1cc(C(=O)NC2CCc3nc(C)cn3C2)[nH]n1 (stereo not drawn) | -5.51%
Cc1cn2c(n1)CCC(NC(=O)c1c[nH]c(C)n1)C2 (stereo not drawn) | -5.66%
Cn1nc2c(cc1=O)CN(Cc1nc(C(C)(C)C)no1)CC2 | -5.46%
Cc1cc(CN(C)C(=O)c2ccc(Cl)c(S(C)(=O)=O)c2)no1 | 13.8%
